Data as given in patent US20050222146A1, “N-substituted-n-sulfonylaminocyclopropane compounds and pharmaceutical use thereof” (priority 2003, published 2005).

Experiments:
Assay type in all cases: biochemical
aggrecanase-1 = biological target: T1, aggrecanase-1 (Homo sapiens, UniProt O75173); experiment: Aggrecanase-1 inhibitory action, Particle Assay (GAG release from aggrecan-containing polyacrylamide particles); conditions: 37° C. for 15 hr, read-out: Experimental Example 1 IC50 AG1
T1 sequence (O75173 213-837): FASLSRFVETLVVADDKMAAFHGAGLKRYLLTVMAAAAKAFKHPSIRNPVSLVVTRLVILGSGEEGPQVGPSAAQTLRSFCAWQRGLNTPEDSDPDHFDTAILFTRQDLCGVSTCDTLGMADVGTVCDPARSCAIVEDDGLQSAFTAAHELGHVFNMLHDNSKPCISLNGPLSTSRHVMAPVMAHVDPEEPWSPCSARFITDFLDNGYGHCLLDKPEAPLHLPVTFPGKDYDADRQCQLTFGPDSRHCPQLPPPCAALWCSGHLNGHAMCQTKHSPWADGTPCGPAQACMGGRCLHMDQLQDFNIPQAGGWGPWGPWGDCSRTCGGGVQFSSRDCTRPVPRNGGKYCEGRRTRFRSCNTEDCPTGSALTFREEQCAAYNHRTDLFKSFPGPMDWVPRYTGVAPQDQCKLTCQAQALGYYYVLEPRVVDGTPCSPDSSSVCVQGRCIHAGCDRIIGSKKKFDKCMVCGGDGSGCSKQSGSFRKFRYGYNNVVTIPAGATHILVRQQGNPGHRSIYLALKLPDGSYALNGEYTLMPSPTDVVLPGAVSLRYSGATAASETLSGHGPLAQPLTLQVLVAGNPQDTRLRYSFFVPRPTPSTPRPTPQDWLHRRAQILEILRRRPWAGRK
Method in brief: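 IC50 (μM) derived from % inhibition, referenced to enzyme-free and inhibitor-free wells, of GAG release read as 1,9-dimethylmethylene blue absorbance at 595 nm (chondroitin sulfate standard). Substrate: aggrecan-bearing polyacrylamide particles, exposed to enzyme plus compound in Tris-HCl for 15 hr at 37 °C.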

MMP-1 = biological target: T2, MMP-1 (Homo sapiens, UniProt P03956); experiment: MMP-1 inhibitory action, Type I collagen Activity Measurement kit (FITC-labeled collagen type I); conditions: 37° C. for 3 hr, read-out: Experimental Example 2 IC50 MMP1
T2 sequence (P03956 100-469): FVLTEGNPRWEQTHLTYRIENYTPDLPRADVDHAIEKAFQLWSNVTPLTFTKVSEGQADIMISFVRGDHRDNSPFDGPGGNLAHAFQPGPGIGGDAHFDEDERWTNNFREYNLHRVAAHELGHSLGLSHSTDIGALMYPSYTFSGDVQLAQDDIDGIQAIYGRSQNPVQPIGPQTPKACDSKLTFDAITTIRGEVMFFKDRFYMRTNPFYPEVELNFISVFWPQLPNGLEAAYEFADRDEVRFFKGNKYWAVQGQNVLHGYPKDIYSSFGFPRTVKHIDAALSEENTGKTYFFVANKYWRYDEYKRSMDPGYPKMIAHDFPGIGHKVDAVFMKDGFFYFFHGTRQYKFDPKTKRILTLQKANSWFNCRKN

Recombinant Human MMP-13 = biological target: T3, Recombinant Human MMP-13 (Homo sapiens, UniProt P45452); experiment: MMP-13 inhibition, MMP-13 specific fluorescent substrate with quencher; conditions: synthetic substrate 7-MCA-Pro-CHA-Gly-NVal-His-Ala-DPA, 25° C. for 1 h; read-out: Experimental Example 3 IC50 MMP13
T3 construct: purchased R&D systems 511-MM
Procedure: Inhibitory activity of tested compounds on MMP-13 was measured using MMP-13 specific fluorescent substrate with quencher.
The enzyme and substrate were diluted with Tris-HCl buffer, and test compounds were diluted with dimethyl sulfoxide (DMSO).
Test compounds and the enzyme (Recombinant Human MMP-13: R&D systems, 511-MM) were added into 96-well plate. The reaction was initiated by adding synthetic substrate (7-MCA-Pro-CHA-Gly-NVal-His-Ala-DPA: enzyme systems products, Met-06) into the plate. After incubation at 25° C. for 1 h, the reaction was terminated by addition of reaction terminating solution containing acetic acid. Fluorescence intensity of each well was measured (Ex: 325 nm, Em: 405 nm) and the MMP-13 inhibitory activity of the compound in each well (%) was calculated based on the values of enzyme-free well and inhibitor-free well. The inhibitory activity of the compound was represented as IC50 (μM).

Row | IC50 (aggrecanase-1) [nM] | IC50 (MMP-1) [nM] | IC50 (Recombinant Human MMP-13) [nM] | SMILES
1 | ≥ 1000 | ≥ 10000 | ≥ 1000 | CN1CCN(C(=O)OCCN([C@]2(C(=O)O)C[C@H]2c2ccccc2)S(=O)(=O)c2ccc(-c3ccc(Cl)cc3)s2)CC1 [Example 2-15, 4-Methyl-piperazine-1-carboxylic acid 2-{((1R,2S)-1-carboxy-2-phenyl-cyclopropyl)-[5-(4-chloro-phenyl)-thiophene-2-sulfonyl]-amino}-ethyl ester]
2 | ≥ 1000 | ≥ 10000 | ≥ 1000 | O=C(CN([C@]1(C(=O)O)C[C@H]1c1ccccc1)S(=O)(=O)c1ccc(-c2ccc(Cl)cc2)s1)N1CCOCC1 [Example 2-16, (1R,2S)-1-[[5-(4-Chloro-phenyl)-thiophene-2-sulfonyl]-(2-morpholin-4-yl-2-oxo-ethyl)-amino]-2-phenyl-cyclopropanecarboxylic acid]
3 | ≥ 1000 | ≥ 10000 | ≥ 1000 | CN1CCN(C(=O)CN([C@]2(C(=O)O)C[C@H]2c2ccccc2)S(=O)(=O)c2ccc(-c3ccc(Cl)cc3)s2)CC1 [Example 2-17, (1R,2S)-1-{[5-(4-Chloro-phenyl)-thiophene-2-sulfonyl]-[2-(4-methyl-piperazin-1-yl)-2-oxo-ethyl]-amino}-2-phenyl-cyclopropanecarboxylic acid]
4 | ≥ 1000 | ≥ 10000 | < 1000 | O=C(O)[C@@]1(N(CCCO)S(=O)(=O)c2ccc(-c3ccc(Cl)cc3)s2)C[C@H]1c1ccccc1 [Example 2-18, (1R,2S)-1-[[5-(4-Chloro-phenyl)-thiophene-2-sulfonyl]-(3-hydroxy-propyl)-amino]-2-phenyl-cyclopropanecarboxylic acid]
5 | ≥ 1000 | ≥ 10000 | < 1000 | O=C(OCCN([C@]1(C(=O)O)C[C@H]1c1ccccc1)S(=O)(=O)c1ccc(-c2ccc(Cl)cc2)s1)N1CCOCC1 [Example 2-19, Morpholine-4-carboxylic acid 2-{((1R,2S)-1-carboxy-2-phenyl-cyclopropyl)-[5-(4-chloro-phenyl)-thiophene-2-sulfonyl]-amino}-ethyl ester]
6 | ≥ 1000 | ≥ 10000 | ≥ 1000 | O=C(OCCCN([C@]1(C(=O)O)C[C@H]1c1ccccc1)S(=O)(=O)c1ccc(-c2ccc(Cl)cc2)s1)N1CCOCC1 [Example 2-20, Morpholine-4-carboxylic acid 3-{((1R,2S)-1-carboxy-2-phenyl-cyclopropyl)-[5-(4-chloro-phenyl)-thiophene-2-sulfonyl]-amino}-propyl ester]
7 | ≥ 1000 | ≥ 10000 | ≥ 1000 | CN1CCN(C(=O)OCCCN([C@]2(C(=O)O)C[C@H]2c2ccccc2)S(=O)(=O)c2ccc(-c3ccc(Cl)cc3)s2)CC1 [Example 2-21, 4-Methyl-piperazine-1-carboxylic acid 3-{((1R,2S)-1-carboxy-2-phenyl-cyclopropyl)-[5-(4-chloro-phenyl)-thiophene-2-sulfonyl]-amino}-propyl ester]
8 | ≥ 1000 | ≥ 10000 | ≥ 1000 | O=C1CN(S(=O)(=O)c2ccc(-c3ccc(Cl)cc3)s2)C2(C(=O)O)CC2(c2ccccc2)CN1 (stereo not drawn) [Example 2-25, 1R*,7S*)-2-[5-(4-Chloro-phenyl)-thiophene-2-sulfonyl]-4-oxo-7-phenyl-2,5-diaza-bicyclo[5.1.0]octane-1-carboxylic acid]
9 | ≥ 1000 | ≥ 10000 | ≥ 1000 | CN1CC2(c3ccccc3)CC2(C(=O)O)N(S(=O)(=O)c2ccc(-c3ccc(Cl)cc3)s2)CC1=O (stereo not drawn) [Example 2-27, (1R*,7R*)-2-[5-(4-Chloro-phenyl)-thiophene-2-sulfonyl]-5-methyl-4-oxo-7-phenyl-2-,5-diaza-bicyclo[5.1.0]octane-1-carboxylic acid]
